Mortality data for two molecules are collected here from patent EP4574819A1, “DIAZINONE COMPOUNDS FOR THE CONTROL OF INVERTEBRATE PESTS” (priority 2023, dated 2025).

Bounds are passed on as bounds.

Format in all cases: in vivo
The subject of series [1] is Boll weevil (Anthonomus grandis). Put plainly: Boll weevil (Anthonomus grandis) egg/larval mortality on sprayed insect diet in 96-well microtiter plates. Conditions: 2500 ppm; egg and larval mortality after 5 days; in comparison with untreated controls. The protocol:
B.2 Boll weevil (Anthonomus grandis)
For evaluating control of boll weevil (Anthonomus grandis) the test unit consists of 96-well-microtiter plates containing an insect diet and 5-10 A. grandis eggs.
The compounds are formulated using a solution containing 75% v/v water and 25% v/v DMSO. Different concentrations of formulated compounds are sprayed onto the insect diet at 5µl, using a custom-built micro atomizer, at two replications.
After application, microtiter plates are incubated at about 25 ± 1°C and about 75 ± 5 % relative humidity for 5 days. Egg and larval mortality is then visually assessed.

Series [2] concerns Diamond back moth (Plutella xylostella). Put plainly: Diamond back moth (Plutella xylostella) cabbage leaf dip test. The conditions noted are these: 3rd instar larvae, 72 hours after treatment, in comparison with untreated controls. The method, then:
B.3 Diamond back moth (Plutella xylostella)
The active compound was dissolved at the desired concentration in a mixture of 1:1 (vol:vol) distilled water: acetone. Surfactant (Kinetic HV) was added at a rate of 0.01% (vol/vol). The test solution was prepared on the day of use.
Leaves of cabbage were dipped in test solution and air-dried. Treated leaves were placed in petri dishes lined with moist filter paper and inoculated with ten 3rd instar larvae. Mortality was recorded 72 hours after treatment. Feeding damages were also recorded using a scale of 0-100%.

The test system of series [3] is Yellow fever mosquito (Aedes aegypti). Put plainly: whole plant or invertebrate. The conditions noted are these: larval mortality after 2 days, in comparison with untreated controls. The method, then: B.4 Yellow fever mosquito (Aedes aegypti)
For evaluating control of yellow fever mosquito (Aedes aegypti) the test unit consists of 96-well-microtiter plates containing 200µl of tap water per well and 5-15 freshly hatched A. aegypti larvae.
The active compounds are formulated using a solution containing 75% (v/v) water and 25% (v/v) DMSO. Different concentrations of formulated compounds or mixtures are sprayed onto the insect diet at 2.5µl, using a custom-built micro atomizer, at two replications.
After application, microtiter plates are incubated at 28±1°C, 80±5 % RH for 2 days. Larval mortality is then visually assessed.

The subject of series [4] is Green peach aphid (Myzus persicae). Put plainly: Green peach aphid (Myzus persicae) systemic test, artificial diet under artificial membrane. The conditions noted are these: adult aphids, 3 days, in comparison with untreated controls. An excerpt: B.5 Green peach aphid (Myzus persicae)
For evaluating control of green peach aphid (Myzus persicae) through systemic means, the test unit consisted of 96-well-microtiter plates containing liquid artificial diet under an artificial membrane.
The compounds were formulated using a solution containing 75% v/v water and 25% v/v DMSO. Different concentrations of formulated compounds were pipetted into the aphid diet, using a custom built pipetter, at two replications.
After application, 5 - 8 adult aphids were placed on the artificial membrane inside the microtiter plate wells. The aphids were then allowed to suck on the treated aphid diet and incubated at about 23 ± 1°C and about 50 ± 5 % relative humidity for 3 days. Aphid mortality and fecundity was then visually assessed.

Series [5] relates to Tobacco budworm (Heliothis virescens). Kind of series: Tobacco budworm (Heliothis virescens) egg/larval mortality on sprayed insect diet in 96-well microtiter plates. The conditions noted are these: 120 h, egg and larval mortality after 5 days, in comparison with untreated controls. The method, then: B.1 Tobacco budworm (Heliothis virescens)
For evaluating control of tobacco budworm (Heliothis virescens) the test unit consists of 96-well-microtiter plates containing an insect diet and 15-25 H. virescens eggs.
The compounds are formulated using a solution containing 75% v/v water and 25% v/v DMSO. Different concentrations of formulated compounds are sprayed onto the insect diet at 10µl, using a custom-built micro atomizer, at two replications.
After application, microtiter plates are incubated at about 28 ± 1°C and about 80 ± 5 % relative humidity for 5 days. Egg and larval mortality is then visually assessed.

For the molecule `CC(NC(=O)c1cc(C(F)(F)F)cc(C(F)(F)F)c1)c1nccnc1C1=NNC(=O)CN1C` (centres unmarked) [Compound I-1, N-(1-(3-(4-Methyl-6-oxo-1,4,5,6-tetrahydro-1,2,4-triazin-3-yl)pyrazin-2-yl)ethyl)-3,5-bis(trifluoromethyl)benzamide], the mortality result in series [1], in series [2] (2500 ppm), in series [3] (2500 ppm) and in series [4] (2500 ppm) was “at least 75%” each time.

`CC(NC(=O)c1cc(C(F)(F)F)cc(C(F)(F)F)c1)c1nccnc1C1=NN(C)C(=O)CO1` (centres unmarked) [Compound I-4, N-(1-(3-(4-methyl-5-oxo-5,6-dihydro-4H-1,3,4-oxadiazin-2-yl)pyrazin-2-yl)ethyl)-3,5-bis(trifluoromethyl)benzamide]: the mortality (in general, the percentage killed) at 2500 ppm in series [5] was at least 75%; in series [2] (Plutella xylostella, foliar), at least 75%; in series [3] (Aedes aegypti, 48 h), at least 75%; in series [4] (Myzus persicae, 72 h) it was at least 75%.
